The values below come from a compilation of properties of binary mixtures (doi:10.1007/s10953-018-0732-1).

The data set in a line: xn = mol fraction of the nth substance listed. Conditions: 101.3 kPa.

For the molecule `c1c[nH]cn1` + CCCC[N+]1(C)CCCC1.O=S(=O)([N-]S(=O)(=O)C(F)(F)F)C(F)(F)F, the viscosity (as a rule, the internal friction of a fluid under shear) is, setting by setting: (323.15 K, x2 = 0.5) 18.6 mPa·s; (333.15 K, x2 = 0.5) 13.5 mPa·s; (343.15 K, x2 = 0.5) 9.7 mPa·s; (353.15 K, x2 = 0.5) 7.9 mPa·s.

For the molecule `CCCC[P+](CCCC)(CCCC)CCCC.CS(=O)(=O)[O-]` + c1c[nH]cn1, the viscosity by setting is: (303.05 K, x1 = 0.5) 176 mPa·s; (323.05 K, x1 = 0.5) 61 mPa·s; (333.05 K, x1 = 0.5) 40.2 mPa·s; (343.05 K, x1 = 0.5) 29.5 mPa·s.

In the case of `c1c[nH]cn1` + CCCCCC[N+]1(C)CCCC1.O=S(=O)([N-]S(=O)(=O)C(F)(F)F)C(F)(F)F, the viscosity worked out at 23.8 mPa·s (323.15 K, x2 = 0.5) and 16 mPa·s (333.15 K, x2 = 0.5).

Turning to `c1c[nH]cn1` + CC(C)C[P+](C)(CC(C)C)CC(C)C.Cc1ccc(S(=O)(=O)[O-])cc1, the viscosity runs as follows: (303.09 K, x2 = 0.5) 357 mPa·s; (323.07 K, x2 = 0.5) 100 mPa·s; (333.11 K, x2 = 0.5) 63 mPa·s; (343.1 K, x2 = 0.5) 43.3 mPa·s; (353.08 K, x2 = 0.5) 32.8 mPa·s.
